Experimental data: US8349371B2, “Method for anti-oxidation, inhibiting activity and/or expression of matrix metalloproteinase, and/or inhibiting phosphorylation of mitogen-activated protein kinase using neonauclea reticulata leaf extracts” (China Medical University, priority 2010, dated 2013)
Values joined by “and” are separate entries in the source; they are usually repeats but may differ in a detail not shown here. Identical values can stand only once.

Legend:
MMP-3 = experiment: Inhibition test of matrix metalloproteinase expression in UVB-irradiated fibroblast Hs68 (western blotting): MMP-3; type: cell-based, human; settings: expression relative to control group (1.00); UVB 40 mJ/cm^2, Hs68; 10 μg/mL
Description: (§1) A total of 5×10^5 fibroblast Hs68 (human foreskin fibroblast, Bioresource Collection and Research Center (BCRC) number:60038, purchased from Food Industry Research and Development Institute (FIRDI)) was counted and cultivated in a culture medium (90% Dulbecco's modified Eagle's medium adjusted with 4 mM of L-glutamine, containing 1.5 g/L NaHCO3, 4.5 g/L glucose, and 10% heat-inactivated fetal bovine serum) with a diameter of 10 cm. After the fibroblast Hs68 grew to a density of 80%, the culture solution was removed, and the cells were rinsed with 5 mL of a phosphate buffer saline (PBS) solution once. Then, 3 mL of a phenol red-free culture solution containing the Neonauclea reticulata leaf water extract with different concentrations ([…]) was added into the culture medium, and was reacted for 1 hour. The cells were placed under ultraviolet light (40 mJ/cm^2, Ultraviolet B (UVB)) for irradiation. […] Using luminescence imaging technology with an associated analysis software and LAS-4000 (FUJIFILM) to record the image, and a quantitative analysis was carried out by multi Gauge […] […]

MMP-9 = experiment: Inhibition test of matrix metalloproteinase expression in UVB-irradiated fibroblast Hs68 (western blotting): MMP-9; type: cell-based, human; settings: expression relative to control group (1.00); UVB 40 mJ/cm^2, Hs68; 10 μg/mL
Description: as §1

MMP-1 = experiment: Inhibition test of matrix metalloproteinase expression in UVB-irradiated fibroblast Hs68 (western blotting): MMP-1; type: cell-based, human; settings: expression relative to control group (1.00); UVB 40 mJ/cm^2, Hs68; 10 μg/mL
Description: as §1

[1] = Anti-oxidation test: DPPH free radicals removal test; type: biochemical; settings: DPPH scavenging, 50 μg/mL
Description: A 100 μL of the Neonauclea reticulata leaf water extract, methanol extract, or the hydrolytes thereof with different concentrations (10 to 100 μg/mL) and a 100 μL. DPPH solution (200 μM) dissolved in methanol were added in a 96-well microplate, and were mixed evenly and placed under 37° C. away from light for 30 minutes. The absorbance of the mixture was determined by an enzyme immunoassay instrument under a wavelength of 517 nm. In this test, the extract was replaced by 50 vol % propylene glycol as the control group, and ascorbic acid (vitamin C) was used as a positive control group, and DPPH was replaced by methanol for determining the background value. The ability of the Neonauclea reticulata leaf extract to remove free radicals was calculated by the following formula. The results are shown in Table 5 to Table 7 and FIG. 12 to FIG. 14. [formula]

O=C(O[C@@H]1Cc2c(O)cc(O)cc2O[C@@H]1c1cc(O)c(O)c(O)c1)c1cc(O)c(O)c(O)c1 [EGCG]
MMP-3 (MMP-3): 1.15 ± 0.16 | MMP-9 (MMP-9): 0.95 ± 0.26 | MMP-1 (MMP-1): 1.10 ± 0.15

O=C1O[C@H]([C@@H](O)CO)C(O)=C1O [Vitamin C, ascorbic acid]
Inhibition ([1]; Table 5): 98.60 ± 0.32 | Inhibition Rate ([1]; Tables 6 and 7): 88.36 ± 2.71 and 97.99 ± 0.12
